Experimental data from US10654807B2, “Toll-like receptor 8 agonists” (The University Of Kansas, priority 2013, dated 2020).
Entries after “also recorded” stand apart in the source; their conditions may differ.

Legend:
whole human blood = experiment: proinflammatory cytokine induction in human blood; format: cell-based; settings: FIGS. 6A-6D, Compound 2 as reference
[1] = test system: human natural killer cells; experiment: CD69 upregulation by flow cytometry in whole human blood; format: cell-based; settings: 16.5 h, FIG. 8
Protocol: Flow-Cytometric Immunostimulation Experiments:
CD69 upregulation was determined by flow cytometry. Briefly, heparin-anticoagulated whole blood samples were obtained by venipuncture from healthy human volunteers with informed consent and as per guidelines approved by the University of Kansas Human Subjects Experimentation Committee. […] Negative (endotoxin free water) controls were included in each experiment. Following incubation, 200 μL aliquots of anticoagulated whole blood were stained with 20 µL of fluorochrome-conjugated antibodies at 37° C. in the dark for 30 min. For triple color flow cytometry experiments, CD3-PE, CD56-APC, CD69-PE-Cy7 were used to analyze CD69 activation of each of the main peripheral blood lymphocyte populations: natural killer lymphocytes (NK cells: CD3^−CD56^+), cytokine-induced killer phenotype (CIK cells: CD3^+CD56^+), nominal B lymphocytes (CD3^−CD56^−), and nominal T lymphocytes (CD3^+CD56^−). Following staining, erythrocytes were lysed and leukocytes fixed in one step by mixing 200 μL of the samples in 4 mL pre-warmed Whole Blood Lyse/Fix Buffer (Becton-Dickinson Biosciences, San Jose, Calif.). After washing the cells twice at 200 g for 8 minutes in saline, the cells were transferred to a 96-well plate. […]

human ex vivo blood = settings: transcriptomal profiling
TLR7/TLR8 = settings: background statement; cited from earlier work

Row | Structure (SMILES) | induction of TNF-α, IL-1β, IL-6 and IL-8 (whole human blood) | CD69 expression on natural killer lymphocytes [1] | IFN-α transcription (human ex vivo blood) | induction of proinflammatory cytokine transcripts (human ex vivo blood) | TLR7/TLR8 agonism profile described (TLR7/TLR8)
1 | CCCCc1cc2c(o1)c(N)nc1ccccc12 [Compound A8d, 2-butylfuro[2,3-c]quinolin-4-amine] | induce TNF-α, IL-β, IL-6 and IL-8 in a dose-dependent manner, albeit with a lower potency than Compound 2 | absence of natural killer lymphocyte activation; also recorded: absence of CD69 upregulation | induced only by Compound 2 | strong induction of proinflammatory cytokine transcripts (including IL-12 and IL-18) | –
2 | CCCN(CCC)C(=O)C1=Cc2ccc(-c3ccc(C(=O)N4CCCC4)cc3)cc2N=C(N)C1 [VTX-2337] | – | – | – | – | mixed TLR7/TLR8-agonism
